Patent US7569724B2, “Carbamic acid compounds comprising an amide linkage as HDAC inhibitors” (Topotarget UK Limited, priority 2000, dated 2009)
Read-outs that look alike come from different tables or passages of the source.

Experiments:
[1] = tested on: HDAC (HeLa cell extract); test: Primary assay: deacetylase activity, HeLa cell extract as source of HDAC; format: biochemical, human; conditions: HeLa cell extract
Text: Briefly, this assay relies on the release of radioactive acetate from a radioactively labelled histone fragment by the action of HDAC enzyme. Test compounds, which inhibit HDAC, reduce the yield of radioactive acetate. Signal (e.g., scintillation counts) measured in the presence and absence of a test compound provide an indication of that compound's ability to inhibit HDAC activity. Decreased activity indicates increased inhibition by the test compound.
The histone fragment was an N-terminal sequence from histone H4, and it was labelled with radioactively labelled acetyl groups using tritiated acetylcoenzyme A (coA) in conjunction with an enzyme which is the histone acetyltransferase domain of the transcriptional coactivator p300. […] The acetylated peptide was then separated from free acetyl coA by size exclusion chromatography on Sephadex G-15 (Sigma G-15-120), using distilled H2O as the mobile phase.
After purification of the radiolabelled histone fragment, it was incubated with a source of HDAC (e.g., an extract of HeLa cells (a rich source of HDAC), recombinantly produced HDAC1 or HDAC2) and any released acetate was extracted into an organic phase and quantitatively determined using scintillation counting. By including a test compound with the source of HDAC, that compound's ability to inhibit the HDAC was determined.
The HeLa cell extract was made from HeLa cells (ATCC Ref. No. CCL-2) by freeze-thawing three times in 60 mM TrisCl pH 8.0, 450 mM NaCl, 30% glycerol. Two cell volumes of extraction buffer were used, and particulate material was centrifuged out (20800 g, 4° C., 10 min). The supernatant extract having deacetylase activity was aliquotted and frozen for storage.
A source of HDAC (e.g., 2 μL of crude HeLa extract, 5 μL of HDAC1 or HDAC2; in elution buffer, as above) was incubated with 3 μL of radioactively labelled peptide along with appropriate dilutions of candidate compounds (1.5 μL) in a total volume of 150 μL of buffer (20 mM Tris pH 7.4, 10% glycerol). The reaction was carried out at 37° C. for one hour, after which the reaction was stopped by adding 20 μL of 1 M HCl/0.4 M sodium acetate. […] Radioactivity was measured using a Tri-Carb 2100TR Liquid Scintillation Analyzer (Packard).
Percent activity (% activity) for each test compound was calculated as: % activity={(S^C−B)/(S^o−B)}×100 wherein S^C denotes signal measured in the presence of enzyme and the compound being tested, S^o denotes signal measured in the presence of enzyme but in the absence of the compound being tested, and B denotes the background signal measured in the absence of both enzyme and compound being tested.

[2] = tested on: HeLa cells; test: Secondary assay: cell proliferation WST-1, HeLa; format: cell-based; conditions: Homo sapiens, 48 h, read-out: Cell Proliferation Inhibition WST-1 (IC50 unless otherwise specified) HeLa
Description: (§1) Compounds with HDAC inhibition activity, as determined using the primary assay, were subsequently evaluated using secondary cell-based assays. The following cell lines were used:
HeLa—Human cervical adenocarcinoma cell line (ATCC ref. No. CCL-2).
(§2) Cells were plated in 96-well plates at 3-10×10^3 cells/well in 100 μL of culture medium. The following day, different concentrations of candidate compounds were added and the cells incubated at 37° C. for 48 h. Subsequently, 10 μL/well of WST-1 reagent was added and the cells reincubated for 1 hour. After the incubation time, absorbance was measured.
(§3) WST-1 is a tetrazolium salt which is cleaved to formazan dye by cellular enzymes. An expansion in the number of viable cells results in an increase in the overall activity of mitochondrial dehydrogenases in the sample. This augmentation in the enzyme activity leads to an increase in the amount of formazan dye formed, which directly correlates to the number of metabolically active cells in the culture. The formazan dye produced is quantified by a scanning multiwell spectrophotometer by measuring the absorbance of the dye solution at 450 nm wavelength (reference wavelength 690 nm).
(§4) Percent activity (% activity) in reducing the number of viable cells was calculated for each test compound as: % activity={(S^C−B)/(S^o−B)}×100 wherein S^C denotes signal measured in the presence of the compound being tested, S^o denotes signal measured in the absence of the compound being tested, and B denotes the background signal measured in blank wells containing medium only.
(§5) IC50 values were calculated using the software package Prism 3.0 (GraphPad software Inc., San Diego, Calif.), setting top value at 100 and bottom value at 0.

[3] = tested on: K11 HPV E7 transformed human keratinocyte line; test: Secondary assay: cell proliferation WST-1, K11; format: cell-based; conditions: Homo sapiens, Keratinocyte, 48 h, read-out: Cell Proliferation Inhibition WST-1 (IC50 unless otherwise specified) K11
Description: as §1
K11—HPV E7 transformed human keratinocyte line provided by Pidder Jansen-Duerr, Institut für Biomedizinische Alternsforschung, Innsbruck, Austria.
as §2, §3, §4, §5

[4] = tested on: JURKAT human T-cell line; test: Secondary assay: cell proliferation WST-1, Jurkat; format: cell-based; conditions: Homo sapiens, 48 h, read-out: Cell Proliferation Inhibition WST-1 (IC50 unless otherwise specified) Jurkat
Description: as §1
JURKAT—Human T-cell line (ATCC no. TIB-152).
as §2, §3, §4, §5

[5] = read-out: HDAC Inhibition (IC50 unless otherwise specified) HeLa
[6] = comparative tables, read-out: HeLa IC50

| Structure (SMILES) | melting point | IC50 [1, 5] | IC50 [1, 6] | IC50 [2] | IC50 ([1]; comparative tables, no unit in cell, read-out: HeLa IC50) | IC50 [3] | IC50 [4] | HDAC Inhibition HeLa, percent ([1]; @ 500 nM) | percent HDAC inhibition at the stated concentration ([1]; comparative tables, @ 500 nM) |
| --- | --- | --- | --- | --- | --- | --- | --- | --- | --- |
| CN(C)c1ccc(C(=O)NCCCCC(=O)NO)c2ccccc12 [PX082534, 4-Dimethylamino-napthalene-1-carboxylic acid (4-hydroxycarbamoyl-butyl)-amide] | 129 °C | 1500 nM | 1500 nM | 24000 nM | – | – | – | – | – |
| O=C(CCCCCNC(=O)c1ccc2ccccc2c1)NO [PX105687, Naphthalene-2-carboxylic acid (5-hydroxycarbamoylpentyl)amide] | – | – | – | – | – | 2600 nM | 400 nM | – | – |
| O=C(CCCCCNC(=O)c1ccco1)NO [PX105826, Furan-2-carboxylic acid (5-hydroxycarbamoyl-pentyl)-amide] | 113.5 to 115 °C | 396 nM | 400 nM | 18000 nM | – | – | – | – | – |
| O=C(CCCCCNC(=O)c1cccc2ccccc12)NO [PX105828, Naphthalene-1-carboxylic acid (5-hydroxycarbamoyl-pentyl)-amide] | 118 to 119 °C | 333 nM | 333 nM | 17000 nM | – | – | – | – | – |
| O=C(/C=C/C=C/c1ccccc1[N+](=O)[O-])NCCCCCC(=O)NO [PX105830, (2E,4E)-5-(2-Nitrophenyl)penta-2,4-dienoic acid (5-hydroxycarbamoyl-pentyl)amide] | 131 to 133 °C | 82 nM | – | 14000 nM | – | – | – | – | – |
| O=C(CCCCCNC(=O)CCCCc1ccccc1)NO [PX117261, 6-(5-Phenyl-pentanoylamino)-hexanoic acid hydroxyamide] | 97 to 98 °C | – | – | 71000 nM | – | – | – | 51% @ 500 nM | – |
| O=C(CCCCCNC(=O)CC/C=C\c1ccccc1)NO [PX117444, (Z)-N-[6-(Hydroxyamino)-6-oxohexyl]-5-phenyl4-pentenamide] | 101 to 103 °C | 688 nM | – | 45000 nM | – | – | – | – | – |
| C/C(=C\C#Cc1ccccc1)C(=O)NCCCCCC(=O)NO [PX117451, E-2-Methyl-5-phenylpent-2-en-4-ynoic acid (5-hydroxycarbamoyl-pentyl)amide] | – | 31 nM | – | 22000 nM | – | 12000 nM | – | – | – |
| CN(C)c1ccc(CC(=O)NCCCCCC(=O)NO)cc1 [PX117458, 6-[2-(4-Dimethylamino-phenyl)-acetylamino]-hexanoic acid hydroxyamide] | 124 to 126 °C | – | – | – | – | – | – | 9% @ 500 nM | 9% @ 500 nM |
| O=C(CCCCCCC(=O)NCc1cccc2ccccc12)NO [PX117459, Octanedioic acid hydroxyamide (naphthalen-1-ylmethyl)-amide] | 141 to 143 °C | – | – | – | – | – | – | 63% @ 500 nM | – |
| O=C(CCCCCC(=O)Nc1ccc2ccccc2c1)NO [PX117461, Heptanedioic acid hydroxyamide naphthalen-2-ylamide] | 142 to 144 °C | 20 nM | – | > 5000 nM | – | – | – | – | – |

Further compounds by falling IC50 [2], results first:

| melting point | IC50 [1, 5] | IC50 [1, 6] | IC50 [2] | IC50 ([1]; comparative tables, no unit in cell, read-out: HeLa IC50) | Structure (SMILES) | IC50 [3] | IC50 [4] | HDAC Inhibition HeLa, percent ([1]; @ 500 nM) | percent HDAC inhibition at the stated concentration ([1]; comparative tables, @ 500 nM) |
| --- | --- | --- | --- | --- | --- | --- | --- | --- | --- |
| 106 to 108 °C | – | – | 13000 nM | – | O=C(CCCCCNC(=O)[C@H](Cc1c[nH]c2ccccc12)NC(=O)CCCc1ccccc1)NO [PX117407, N-hydroxy-6-({(2S)-3-(1H-indol-3-yl)-2-[(4-phenylbutanoyl)amino]-propanoyl}amino)-hexanamide] | – | – | 40% @ 500 nM | – |
| 123 to 123.5 °C | – | – | 11000 nM | – | O=C(CCCCCCC(=O)NCC(c1ccccc1)c1ccccc1)NO [PX117249, Octanedioic acid (2,2-diphenyl-ethyl)-amide hydroxyamide] | – | – | 64% @ 500 nM | – |
| 140 to 142 °C | – | – | 11000 nM | – | O=C(CCCCCC(=O)NCCc1c[nH]c2ccccc12)NO [PX117408, N^1-Hydroxy-N^7-[2-(1H-indol-3-yl)ethyl]heptanediamide] | – | – | 41% @ 500 nM | – |
| 112 to 113 °C | 62 nM | – | 11000 nM | – | O=C(C#Cc1ccccc1)NCCCCCC(=O)NO [PX117415, 3-Phenyl-propynoic acid (5-hydroxycarbamoyl-pentyl)-amide] | – | – | – | – |
| 158 to 160 °C | 63 nM | – | 8400 nM | – | C/C(=C\C=C\c1ccccc1)C(=O)NCCCCCC(=O)NO [PX106520, (2E,4E)-2-Methyl-5-phenylpenta-2,4-dienoic acid (5-hydroxycarbamoylpentyl)-amide] | – | – | – | – |
| 111 to 113 °C | 75 nM | – | 8300 nM | – | O=C(/C=C/C=C/c1ccc([N+](=O)[O-])cc1)NCCCCCC(=O)NO [PX105847, (2E,4E)-5-(4-Nitrophenyl)penta-2,4-dienoic acid (5-hydroxycarbamoyl-pentyl)-amide] | – | – | – | – |
| 112 to 114 °C | – | – | 6900 nM | – | O=C(CCCCCNC(=O)[C@H](Cc1c[nH]c2ccccc12)NC(=O)Cc1ccc2ccccc2c1)NO [PX117406, N-Hydroxy-6-[((2S)-3-(1H-indol-3-yl)-2-{[2-(2-naphthyl)acetyl]-amino}propanoyl)amino]-hexanamide] | – | – | 48% @ 500 nM | – |
| 118.5 to 120 °C | 100 nM | – | 6000 nM | – | O=C(CCCCCCC(=O)NCCc1c[nH]c2ccccc12)NO [PX116216, Octanedioic acid hydroxyamide [2-(1H-indol-3-yl)-ethyl]-amide] | – | – | – | – |
| 150 to 151.5 °C | 82 nM | – | 5800 nM | – | CC(C)(C)c1ccc(C(=O)NCCCCCC(=O)NO)cc1 [PX106496, 4-tert-Butyl-N-(5-hydroxycarbamoylpentyl)benzamide] | – | – | – | – |
| 127.5 to 128 °C | 85 nM | – | 3100 nM | – | CC(C)c1ccc(C(=O)NCCCCCC(=O)NO)cc1 [PX117421, N-[6-(Hydroxyamino)-6-oxohexyl]-4-isopropylbenzamide] | – | – | – | – |
| 172 to 174 °C | 24 nM | 24 nM | 1000 nM | – | CN(C)c1ccc(/C=C/C=C/C(=O)NCCCCCC(=O)NO)cc1 [PX106527, (2E,4E)-5-(4-Dimethylamino-phenyl)-penta-2,4-dienoic acid (5-hydroxycarbamoyl-pentyl)-amide] | – | – | – | – |
| 147 to 149 °C | 62 nM | – | 650 nM | 62 nM | O=C(/C=C/C=C/c1ccccc1)NCCCCCCC(=O)NO [PX106518] | – | – | – | – |
| 151 to 153 °C | 19 nM | – | 570 nM | – | O=C(/C=C/c1cccs1)NCCCCCC(=O)NO [PX117247, N-(5-Hydroxycarbamoyl-pentyl)-3-thiophen-2-yl-acrylamide] | – | – | – | – |
| 151 to 152.5 °C | 83 nM | 83 nM | 520 nM | – | O=C(/C=C/c1ccco1)NCCCCCC(=O)NO [PX106491, 3-Furan-2-yl-N-(5-hydroxycarbamoyl-pentyl)-acrylamide] | – | – | – | – |
